{
  "source": "patent US12409131B2",
  "about": "“Transdermal delivery of dronabinol” (Pike Therapeutics USA, Inc., priority 2019, dated 2025)",
  "origin": "cited, not measured here",
  "key": {"[1]": {"conditions": "in 96 hrs through human cadaver skin, U.S. Pat. No. 8,449,908"}},
  "data": [
    {"smiles": "CCCCCc1cc(O)c2c(c1)OC(C)(C)[C@@H]1CCC(C)=C[C@@H]21", "note": "(relative stereo) [dronabinol, (6aR-trans)-6a,7,8,10a-tetrahydro-6,6,9-trimethyl-3-pentyl-6H-dibenzo[b,d]pyran-1-ol]", "values": [
      {"measurement": "cumulative amount delivered", "setting": "[1]", "value": 10000, "unit": "ng"},
      {"measurement": "Oral bioavailability", "value": "10-20%"}
    ]}
  ]
}
